The numbers were not newly measured in patent US20070243260A1, “Treatment of Childhood Asthma” (priority 2004, published 2007), which cites them from elsewhere.

Series [1] concerns asthma. The conditions noted are these: single administration, metered-dose aerosol.
In series [2] the test system is asthma. The conditions noted are these: inhaled; up to 8 hours appears to be maximal.

Structures are written as SMILES.

For `C[N+]1(C)CCC(OC(=O)C(O)(c2ccccc2)C2CCCC2)C1` (centres unmarked) [glycopyrrolate], the Period of bronchodilation with asthma [1] is 12 h. For the same compound, the “Duration of effective treatment” value with asthma [2] is given as “up to 12 hours”.
